In brackets after ≈: the same amount, converted by molar mass. Several values for one entry are separate records, joined by “and”; a condition that tells them apart may be missing. Equal entries are not always repeated. Values belong to the compound of their own block, whether it stands above or below them.
Legend:
Assay in all cases: ≥ marks a high value that may be exact or a test limit, other limits are often not marked, values filed in µg/mL are converted to µM
[1] = tested on: Klebsiella pneumoniae ATCC 10031
[2] = tested on: Salmonella enterica subsp. enterica serovar Typhimurium ATCC 14028
[3] = tested on: Staphylococcus aureus ATCC 6538
[4] = tested on: Pseudomonas aeruginosa ATCC 13388
[5] = tested on: Escherichia coli ATCC 11219
[6] = tested on: Actinomyces naeslundii ATCC 12104
[7] = tested on: Streptococcus gordonii DL1
[8] = tested on: Streptococcus sobrinus 6715
[9] = tested on: Limosilactobacillus fermentum ATCC 9338
[10] = tested on: Streptococcus sanguinis ATCC 10556
[11] = tested on: Streptococcus gordonii ATCC 35105
[12] = tested on: Streptococcus salivarius ATCC 27945
[13] = tested on: Limosilactobacillus fermentum A1753
[14] = tested on: Enterococcus faecalis ATCC 29212
[15] = tested on: Lacticaseibacillus casei ATCC 393
[16] = tested on: Streptococcus sanguinis JCM 5708
[17] = tested on: Streptococcus salivarius ATCC 13419
[18] = tested on: Streptococcus mutans UA159
[19] = tested on: Lactobacillus acidophilus ATCC 53544
[20] = tested on: Lactobacillus acidophilus ATCC 14931
[21] = tested on: Candida albicans CCARM 14020
[22] = tested on: Candida albicans SC5314
[23] = tested on: Candida albicans CCARM 14022
[24] = tested on: Candida albicans CCARM 14021
[25] = tested on: Pectobacterium carotovorum
[26] = tested on: Cryptococcus neoformans
[27] = tested on: Trichophyton mentagrophytes
[28] = tested on: Escherichia coli ATCC 10536
[29] = tested on: Candida parapsilosis ATCC 22019
[30] = tested on: Klebsiella pneumoniae ATCC 27736
[31] = tested on: Staphylococcus aureus ATCC 9144
[32] = tested on: Sporothrix schenckii
[33] = tested on: Staphylococcus epidermidis NRRL B-4268
[34] = tested on: Aspergillus fumigatus
[35] = tested on: Pseudomonas aeruginosa ATCC BAA-427
[36] = tested on: Bacillus subtilis ATCC 6633
[37] = tested on: Candida albicans
[38] = tested on: Staphylococcus aureus MR
[39] = tested on: Franconibacter helveticus DSM 18396
[40] = tested on: Escherichia coli DH5alpha
[41] = tested on: Kocuria rhizophila DSM 348
[42] = tested on: Bacillus subtilis DSM 347
[43] = tested on: Staphylococcus epidermidis KCTC 3096
[44] = tested on: Pseudomonas aeruginosa KCTC 1637
[45] = tested on: Candida albicans TIMM 1768
[46] = tested on: Bacillus subtilis KCTC 1918
[47] = tested on: Salmonella typhimurium KCTC 1926
[48] = tested on: Trichosporon beigelii KCTC 7707

SMILES: CC[C@H](C)[C@H](NC(=O)CN)C(=O)N[C@@H](Cc1cnc[nH]1)C(=O)N[C@@H](CC(=O)O)C(=O)N[C@H](C(=O)N[C@@H](CC(C)C)C(=O)N[C@@H](CCCCN)C(=O)N[C@@H](Cc1ccc(O)cc1)C(=O)NCC(=O)N[C@@H](C)C(=O)N1CCC[C@H]1C(=O)N[C@@H](CO)C(N)=O)[C@@H](C)CC [GIHDILKYGAPS]
- MIC [1]: 10 µM (≈ 12.7 µg/mL)
- MIC [2]: > 50 µM
- MIC [3]: 20 µM (≈ 25.4 µg/mL)
- MIC [4]: ≥ 50 µM
- MIC [5]: 15 µM (≈ 19 µg/mL)

SMILES: CC(C)C[C@H](NC(=O)[C@H](C)N)C(=O)N[C@@H](CC(C)C)C(=O)N[C@@H](Cc1cnc[nH]1)C(=O)N[C@@H](Cc1cnc[nH]1)C(=O)NCC(=O)N[C@@H](Cc1ccc(O)cc1)C(=O)N[C@@H](CCCCN)C(=O)N[C@@H](CCCN=C(N)N)C(=O)N[C@@H](CCCCN)C(=O)N[C@@H](Cc1ccccc1)C(=O)N[C@@H](Cc1cnc[nH]1)C(N)=O [ALLHHGYKRKFH]
- MIC [21]: 7.51 µM (≈ 11.3 µg/mL)
- MIC [22]: 15 µM (≈ 22.6 µg/mL)
- MIC [23]: 21.2 µM (≈ 32 µg/mL)
- MIC [24]: 21.2 µM (≈ 32 µg/mL)

SMILES: CC[C@H](C)[C@H](NC(=O)CN)C(=O)NCC(=O)N[C@@H](CCCCN)C(=O)N[C@@H](Cc1ccccc1)C(=O)N[C@@H](CC(C)C)C(=O)N[C@@H](Cc1cnc[nH]1)C(=O)N[C@@H](CO)C(=O)N[C@@H](C)C(=O)N[C@@H](CCCCN)C(=O)N[C@@H](CCCCN)C(=O)N[C@@H](Cc1ccccc1)C(=O)NCC(=O)N[C@@H](CCCCN)C(=O)N[C@@H](C)C(=O)N[C@@H](C)C(=O)N[C@H](C(=O)NCC(=O)N[C@@H](CCC(=O)O)C(=O)N[C@H](C(=O)N[C@@H](CCSC)C(=O)N[C@@H](CC(N)=O)C(=O)N[C@@H](CO)C(=O)O)[C@@H](C)CC)C(C)C [GIGKFLHSAKKFGKAAVGEIMNS]
- MIC [39]: ≥ 128 µM
- MIC [40]: ≥ 128 µM
- MIC [41]: 4 µM (≈ 9.56 µg/mL)
- MIC [42]: 16 µM (≈ 38.3 µg/mL)

SMILES: CC[C@H](C)[C@H](NC(=O)CNC(=O)[C@@H](NC(=O)[C@H](CCCCN)NC(=O)[C@H](CCCCN)NC(=O)[C@H](Cc1ccccc1)NC(=O)[C@H](CC(C)C)NC(=O)[C@H](CCCCN)NC(=O)[C@H](Cc1c[nH]c2ccccc12)NC(=O)[C@@H](N)CCCCN)[C@@H](C)CC)C(=O)NCC(=O)N[C@@H](CCCCN)C(=O)N[C@@H](Cc1ccccc1)C(=O)N[C@@H](CC(C)C)C(=O)N[C@@H](CCCCN)C(=O)N[C@@H](CCCCN)C(=O)N[C@@H](CCCCN)C(N)=O [KWKLFKKIGIGKFLKKK]
- MIC [43]: 3.12 µM (≈ 6.52 µg/mL)
- MIC [44]: 2.21 µM (≈ 4.61 µg/mL)
- MIC [45]: 12.5 µM (≈ 26.1 µg/mL)
- MIC [46]: 3.12 µM (≈ 6.52 µg/mL)
- MIC [47]: 0.19 µM (≈ 0.397 µg/mL)
- MIC [48]: 6.25 µM (≈ 13.1 µg/mL)

Second part, the compound after the results:

- MIC [6]: 2.69 µM (≈ 4 µg/mL)
- MIC [7]: 5.37 µM (≈ 7.99 µg/mL)
- MIC [8]: 10.7 µM and 4.03 µM and 8.06 µM
- MIC [9]: 2.69 µM (≈ 4 µg/mL)
- MIC [10]: 5.37 µM (≈ 7.99 µg/mL)
- MIC [11]: 10.7 µM and 21.5 µM
- MIC [12]: 2.47 µM and 4.92 µM
- MIC [13]: 2.02 µM and 3.14 µM
- MIC [14]: 25.1 µM and 50.2 µM
- MIC [15]: 2.69 µM and 3.14 µM and 6.27 µM
- MIC [16]: 5.37 µM and 10.7 µM
- MIC [3]: 7.17 µM and 14.3 µM
- MIC [17]: 5.37 µM (≈ 7.99 µg/mL)
- MIC [18]: 4.5 µM and 4.48 µM and 6.27 µM
- MIC [19]: 3.14 µM and 4.92 µM
- MIC [20]: 2.69 µM (≈ 4 µg/mL)
SMILES: CC(C)C[C@H](NC(=O)CN)C(=O)N[C@@H](CC(C)C)C(=O)N[C@@H](Cc1c[nH]c2ccccc12)C(=O)N[C@@H](Cc1cnc[nH]1)C(=O)N[C@@H](CC(C)C)C(=O)N[C@@H](CC(C)C)C(=O)N[C@@H](Cc1cnc[nH]1)C(=O)N[C@@H](Cc1cnc[nH]1)C(=O)N[C@@H](CC(C)C)C(=O)N[C@@H](CC(C)C)C(=O)N[C@@H](Cc1cnc[nH]1)C(N)=O [GLLWHLLHHLLH]

- MIC [25]: 4.47 µM (≈ 10.7 µg/mL)
SMILES: CC(C)C[C@H](NC(=O)[C@H](CC(N)=O)NC(=O)[C@H](Cc1ccc(O)cc1)NC(=O)[C@@H]1CCCN1C(=O)[C@@H]1CCCN1)C(=O)N[C@@H](CC(N)=O)C(=O)N[C@@H](CO)C(=O)N[C@@H](Cc1cnc[nH]1)C(=O)N[C@H](C(=O)N[C@@H](CCC(N)=O)C(=O)N[C@@H](CCC(=O)O)C(=O)N[C@@H](Cc1ccc(O)cc1)C(=O)N[C@@H](CO)C(=O)N[C@@H](CCCCN)C(=O)N1CCC[C@H]1C(=O)N[C@@H](CCC(=O)O)C(=O)N[C@@H](CC(=O)O)C(=O)N[C@H](C(=O)N[C@@H](Cc1ccccc1)C(=O)N[C@@H](CC(=O)O)C(=O)O)[C@@H](C)O)[C@@H](C)O [PPYNLNSHTQEYSKPEDTFD]

- MIC [26]: 25 µM (≈ 45.6 µg/mL)
- MIC [27]: 25 µM (≈ 45.6 µg/mL)
- MIC [28]: 4.5 µM (≈ 8.2 µg/mL)
- MIC [29]: 25 µM (≈ 45.6 µg/mL)
- MIC [30]: 25 µM (≈ 45.6 µg/mL)
- MIC [31]: 6.25 µM (≈ 11.4 µg/mL)
- MIC [32]: 25 µM (≈ 45.6 µg/mL)
- MIC [33]: 8 µM (≈ 14.6 µg/mL)
- MIC [34]: 25 µM (≈ 45.6 µg/mL)
- MIC [35]: 6.25 µM (≈ 11.4 µg/mL)
- MIC [36]: 20 µM (≈ 36.4 µg/mL)
- MIC [37]: > 25 µM
- MIC [38]: 25 µM (≈ 45.6 µg/mL)
SMILES: CC(C)C[C@H](NC(=O)[C@H](C)NC(=O)[C@H](CCCN=C(N)N)NC(=O)[C@H](CCCN=C(N)N)NC(=O)[C@H](C)NC(=O)[C@H](Cc1c[nH]c2ccccc12)NC(=O)[C@H](CCCCN)NC(=O)[C@H](CCCN=C(N)N)NC(=O)[C@H](C)NC(=O)[C@H](CCCN=C(N)N)NC(=O)[C@H](CCCN=C(N)N)NC(=O)[C@H](C)N)C(=O)N[C@@H](CCCCN)C(=O)N[C@@H](CC(C)C)C(=O)N[C@@H](C)C(N)=O [ARRARKWARRALKLA]

Source: DBAASP
